Data as given in US11612606B2, “8-aminoisoquinoline compounds and uses thereof” (priority 2018, dated 2023).
Where a name gives a salt, the structure may show the parent alone.

Biological target: HPK full length, T165E S171E (Homo sapiens (Human), UniProt Q92918, S171E/T165E)
Assay: HPK1-FL HTRF enzymatic assay ("HTRF")
Assay type: biochemical
Details: ATP 1 mM, read-out: HPK1 Ki
Procedure, shortened: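 Full-length HPK1 (T165E/S171E) was preincubated 30 min with compound, then reacted 60 min with biotin-SLP-76 and 1 mM ATP. Phospho-SLP-76 was detected by HTRF (Eu-anti-pSLP76 antibody, SA-XL665) after a further 60 min.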

Sequence of HPK full length, T165E S171E (Q92918 whole entry T165E/S171E, looked up): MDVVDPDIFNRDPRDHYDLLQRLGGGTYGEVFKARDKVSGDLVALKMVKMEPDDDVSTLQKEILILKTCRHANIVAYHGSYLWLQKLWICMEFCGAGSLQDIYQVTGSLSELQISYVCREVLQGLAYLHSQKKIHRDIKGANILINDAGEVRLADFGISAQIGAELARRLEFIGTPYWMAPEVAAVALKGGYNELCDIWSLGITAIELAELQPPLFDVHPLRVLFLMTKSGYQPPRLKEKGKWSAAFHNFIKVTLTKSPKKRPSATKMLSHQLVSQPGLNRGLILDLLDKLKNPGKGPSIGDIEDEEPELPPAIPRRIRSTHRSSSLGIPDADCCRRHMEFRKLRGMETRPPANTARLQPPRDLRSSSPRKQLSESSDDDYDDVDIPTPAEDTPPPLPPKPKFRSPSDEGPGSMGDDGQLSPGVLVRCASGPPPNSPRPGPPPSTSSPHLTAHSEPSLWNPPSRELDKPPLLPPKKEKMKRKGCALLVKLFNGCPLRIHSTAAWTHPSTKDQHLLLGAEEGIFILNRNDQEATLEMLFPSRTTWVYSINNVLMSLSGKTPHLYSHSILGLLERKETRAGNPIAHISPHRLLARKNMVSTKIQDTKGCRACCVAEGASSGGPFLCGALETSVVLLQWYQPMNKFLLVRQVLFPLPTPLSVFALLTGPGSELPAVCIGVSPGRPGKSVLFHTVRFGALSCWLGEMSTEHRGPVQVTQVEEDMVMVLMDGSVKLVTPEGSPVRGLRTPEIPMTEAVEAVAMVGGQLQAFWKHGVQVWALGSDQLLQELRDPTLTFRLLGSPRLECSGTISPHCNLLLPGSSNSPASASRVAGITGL

| SMILES | Ki |
| --- | --- |
| CC(=O)N[C@@H]1CCCC[C@H]1OC(=O)Nc1cc2cc(-c3cnc4c(c3C)NCCO4)c(F)c(N)c2cn1 (single isomer, unassigned) [Compound 414b] | 21 nM |
| Cc1c(-c2cc3cc(NC(=O)OC4CN(S(C)(=O)=O)C4)ncc3c(N)c2F)cnc2c1NCCC2 [Compound 493, 1-(Methylsulfonyl)azetidin-3-yl (8-amino-7-fluoro-6-(4-methyl-5,6,7,8-tetrahydro-1,5-naphthyridin-3-yl)isoquinolin-3-yl)carbamate] | 0.064 nM |
| CNC(=O)Nc1cc2cc(-c3cnc4c(c3C)NCCO4)c(F)c(N)c2cn1 [Compound 704, 1-(8-Amino-7-fluoro-6-(8-methyl-2,3-dihydro-1H-pyrido[2,3-b][1,4]oxazin-7-yl)isoquinolin-3-yl)-3-methylurea] | < 0.013 nM |
| CC(=O)N1CC[C@H](OC(=O)Nc2cc3cc(-c4cnc5c(c4C)NCCO5)c(F)c(N)c3cn2)[C@H](F)C1 (single isomer, unassigned) [Compound 437a] | < 0.013 nM |
| Cc1c(-c2cc3cc(NC(=O)O[C@]4(C)C[C@H](O)C4)ncc3c(N)c2F)cnc2c1NCCO2 [Compound 554a, (1s,3s)-3-Hydroxy-1-methylcyclobutyl (8-amino-7-fluoro-6-(8-methyl-2,3-dihydro-1H-pyrido[2,3-b][1,4]oxazin-7-yl)isoquinolin-3-yl)carbamate] | 0.253 nM |
| COCCN1CC(OC(=O)Nc2cc3cc(-c4cnc5c(c4C)NCCO5)c(F)c(N)c3cn2)C1 [Compound 474, 1-(2-Methoxyethyl)azetidin-3-yl (8-amino-7-fluoro-6-(8-methyl-2,3-dihydro-1H-pyrido[2,3-b][1,4]oxazin-7-yl)isoquinolin-3-yl)carbamate] | 0.06 nM |
| Cc1c(-c2cc3cc(NC(=O)OC4CCOCC4)ncc3c(N)c2F)cnc2c1[C@H](O)CCO2 (single isomer, unassigned) [Compound 412b] | 0.29 nM |
| Cc1c(-c2cc3cc(NC(=O)O[C@H]4CN(C)C(=O)C4(C)C)ncc3c(N)c2F)cnc2c1NCCO2 (single isomer, unassigned) [Compound 480b] | 0.28 nM |
| Cc1c(-c2cc3cc(NC(=O)O[C@@H]4CCN(C)C4)ncc3c(N)c2F)cnc2c1NCCO2 [Compound 411b, (R)-1-Methylpyrrolidin-3-yl (8-amino-7-fluoro-6-(8-methyl-2,3-dihydro-1H-pyrido[2,3-b][1,4]oxazin-7-yl)isoquinolin-3-yl)carbamate] | 0.2 nM |
| Cc1c(-c2cc3cc(NC(=O)OC4CCN(C)CC4F)ncc3c(N)c2F)cnc2c1NCCO2 (single isomer, unassigned) [Compound 433] | < 0.013 nM |
| Cc1c(-c2cc3cc(NC(=O)O[C@H]4CC[C@](C)(O)C4)ncc3c(N)c2F)cnc2c1NCCO2 (single isomer, unassigned) [Compound 533b, hydrochloride] | 0.059 nM |
| Cc1c(-c2cc3cc(NC(=O)N[C@@H]4COC[C@@H]4F)ncc3c(N)c2F)cnc2c1NCCO2 (single isomer, unassigned) [Compound 724b] | 0.019 nM |
| Cc1c(-c2cc3cc(NC(=O)O[C@@H]4CC(=O)N(C)C4)ncc3c(N)c2F)cnc2c1NCCO2 (single isomer, unassigned) [Compound 410b] | 0.029 nM |
| Cc1c(-c2cc3cc(NC(=O)O[C@H]4C[C@@H](CC#N)C4)ncc3c(N)c2F)cnc2c1NCCO2 [Compound 536a, (1r,3s)-3-(Cyanomethyl)cyclobutyl (8-amino-7-fluoro-6-(8-methyl-2,3-dihydro-1H-pyrido[2,3-b][1,4]oxazin-7-yl)isoquinolin-3-yl)carbamate] | < 0.013 nM |
| Cc1c(-c2cc3cc(NC(=O)O[C@@H]4CN(C)C(=O)C4(C)C)ncc3c(N)c2F)cnc2c1NCCO2 (single isomer, unassigned) [Compound 480a] | 0.034 nM |
| Cc1c(-c2cc3cc(NC(=O)O[C@H]4CN(C)C[C@H]4F)ncc3c(N)c2F)cnc2c1NCCO2 [Compound 452c, (3S,4R)-4-Fluoro-1-methylpyrrolidin-3-yl (8-amino-7-fluoro-6-(8-methyl-2,3-dihydro-1H-pyrido[2,3-b][1,4]oxazin-7-yl)isoquinolin-3-yl)carbamate] | 0.17 nM |
| CCc1c(-c2cc3cc(NC(=O)O[C@H]4COC[C@@H]4C)ncc3c(N)c2F)cnc2c1NCCO2 (single isomer, unassigned) [Compound 555a, hydrochloride] | < 0.013 nM |
| Cc1c(-c2cc3cc(NC(=O)NC4CC5(C4)CN(CC(F)(F)F)C5)ncc3c(N)c2F)cnc2c1NCCO2 [Compound 708, 1-(8-Amino-7-fluoro-6-(8-methyl-2,3-dihydro-1H-pyrido[2,3-b][1,4]oxazin-7-yl)isoquinolin-3-yl)-3-(2-(2,2,2-trifluoroethyl)-2-azaspiro[3.3]heptan-6-yl)urea] | < 0.013 nM |

| SMILES | Ki |
| --- | --- |
| Cc1c(-c2cc3cc(NC(=O)O[C@H]4CCN([C@H]5CCOC5)C[C@H]4F)ncc3c(N)c2F)cnc2c1NCCO2 [Compound 569c, (3R,4S)-3-fluoro-1-((S)-tetrahydrofuran-3-yl)piperidin-4-yl (8-amino-7-fluoro-6-(8-methyl-2,3-dihydro-1H-pyrido[2,3-b][1,4]oxazin-7-yl)isoquinolin-3-yl)carbamate] | 0.029 nM |
| Cc1c(-c2cc3cc(NC(=O)OC4CN(C(=O)[C@H]5C[C@@H]5F)C4)ncc3c(N)c2F)cnc2c1NCCC2 (single isomer, unassigned) [Compound 531a] | 0.055 nM |
| Cc1c(-c2cc3cc(NC(=O)O[C@H]4CCC5(CCN(C6COC6)CC5)C4)ncc3c(N)c2F)cnc2c1NCCO2 (single isomer, unassigned) [Compound 511b] | 0.017 nM |
| CCN1C[C@@H](OC(=O)Nc2cc3cc(-c4cnc5c(c4C)NCCO5)c(F)c(N)c3cn2)CC1=O (single isomer, unassigned) [Compound 478b, (5)-1-Ethyl-5-oxopyrrolidin-3-yl (8-amino-7-fluoro-6-(8-methyl-2,3-dihydro-1H-pyrido[2,3-b][1,4]oxazin-7-yl)isoquinolin-3-yl)carbamate] | < 0.013 nM |
| CC(=O)N1CC2(CC(NC(=O)Nc3cc4cc(-c5cnc6c(c5C)NCCO6)c(F)c(N)c4cn3)C2)C1 [Compound 709, 1-(2-Acetyl-2-azaspiro[3.3]heptan-6-yl)-3-(8-amino-7-fluoro-6-(8-methyl-2,3-dihydro-1H-pyrido[2,3-b][1,4]oxazin-7-yl)isoquinolin-3-yl)urea] | < 0.013 nM |
| Cc1c(-c2cc3cc(NC(=O)O[C@@H]4CO[C@H]5OCC[C@H]54)ncc3c(N)c2F)cnc2c1NCCO2 (single isomer, unassigned) [Compound 568b] | 0.018 nM |
| Cc1c(-c2cc3cc(NC(=O)N[C@H]4C[C@]5(CCOC5)C4)ncc3c(N)c2F)cnc2c1NCCC2 [Compound 740a, 1-(8-Amino-7-fluoro-6-(4-methyl-5,6,7,8-tetrahydro-1,5-naphthyridin-3-yl)isoquinolin-3-yl)-3-((2s,4s)-6-oxaspiro[3.4]octan-2-yl)urea] | < 0.013 nM |
| CO[C@H]1COCC[C@H]1NC(=O)Nc1cc2cc(-c3cnc4c(c3C)NCCO4)c(F)c(N)c2cn1 (single isomer, unassigned) [Compound 750b] | < 0.013 nM |
| Cc1c(-c2cc3cc(NC(=O)O[C@@H]4CCOC4)ncc3c(N)c2F)cnc2c1C(C#N)CCO2 (stereo partly drawn) [Compound 562a, (R)-Tetrahydrofuran-3-yl (8-amino-6-(4-cyano-5-methyl-3,4-dihydro-2H-pyrano[2,3-b]pyridin-6-yl)-7-fluoroisoquinolin-3-yl)carbamate] | 0.068 nM |
| Cc1c(-c2cc3cc(NC(=O)O[C@H]4C[C@@H](O)C4)ncc3c(N)c2F)cnc2c1NCCO2 [Compound 485a, (1s,3s)-3-Hydroxycyclobutyl (8-amino-7-fluoro-6-(8-methyl-2,3-dihydro-1H-pyrido[2,3-b][1,4]oxazin-7-yl)isoquinolin-3-yl)carbamate] | < 0.013 nM |
| Cc1c(-c2cc3cc(NC(=O)OC4CC5(CCN(C)CC5)C4)ncc3c(N)c2F)cnc2c1NCCO2 [Compound 427, 7-Methyl-7-azaspiro[3.5]nonan-2-yl (8-amino-7-fluoro-6-(8-methyl-2,3-dihydro-1H-pyrido[2,3-b][1,4]oxazin-7-yl)isoquinolin-3-yl)carbamate] | < 0.013 nM |
| Cc1c(-c2cc3cc(NC(=O)O[C@H]4CCN(C5COC5)C[C@H]4F)ncc3c(N)c2F)cnc2c1NCCO2 [Compound 445d, (3R,4S)-3-Fluoro-1-(oxetan-3-yl)piperidin-4-yl (8-amino-7-fluoro-6-(8-methyl-2,3-dihydro-1H-pyrido[2,3-b][1,4]oxazin-7-yl)isoquinolin-3-yl)carbamate] | < 0.013 nM |
| CO[C@H]1COCC[C@@H]1OC(=O)Nc1cc2cc(-c3cnc4c(c3C)NCCO4)c(F)c(N)c2cn1 (single isomer, unassigned) [Compound 583a] | 0.12 nM |
| CNc1cncc(-c2cc3cc(NC(=O)O[C@H]4C[C@](C)(O)C4)ncc3c(N)c2F)c1C [Compound 527a, (1r,3r)-3-Hydroxy-3-methylcyclobutyl (8-amino-7-fluoro-6-(4-methyl-5-(methylamino)pyridin-3-yl)isoquinolin-3-yl)carbamate] | 0.538 nM |
| Cc1c(-c2cc3cc(NC(=O)N[C@H]4COC[C@H]4F)ncc3c(N)c2F)cnc2c1NCCO2 (single isomer, unassigned) [Compound 724a] | 0.019 nM |
| Cc1c(-c2cc3cc(NC(=O)NC4CC4)ncc3c(N)c2F)cnc2c1NCCO2 [Compound 702, 1-(8-Amino-7-fluoro-6-(8-methyl-2,3-dihydro-1H-pyrido[2,3-b][1,4]oxazin-7-yl)isoquinolin-3-yl)-3-cyclopropylurea] | < 0.013 nM |
| CCN1C[C@H](OC(=O)Nc2cc3cc(-c4cnc5c(c4C)NCCO5)c(F)c(N)c3cn2)CC1=O (single isomer, unassigned) [Compound 478a] | 0.25 nM |
| Cc1c(-c2cc3cc(NC(=O)OC4CCOCC4)ncc3c(N)c2F)cnc2c1NCC[C@@H]2C (single isomer, unassigned) [Compound 461b] | 1.01 nM |
